We go through 16 compounds from PubChem BioAssay (NCI).

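96-well plates; 48 h exposure; 5 concentrations. Endpoints by linear interpolation between flanking doses. Not reached: highest tested concentration assigned. At the GI50, growth is halved. TGI: concentration producing complete growth inhibition.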

Some test systems named below: HL-60(TB) leukemia; HCT-116 colon; NCI-H226 lung; KM12 colon; TK-10 renal; 786-0 renal; HOP-62 NSCLC; A498 renal; OVCAR-8 ovarian; HS 578T breast.
Common to all, as to assay: DTP human tumour cell line panel, 48 h

What is called TGI is the concentration at which net growth stops. A high value points to less potent growth arrest. As a reminder, the GI50 is the concentration giving 50% growth inhibition.

Regarding `c1ccc(C2=NOC3(c4ccccc4)SC4CCCCC4CN23)cc1` (centres undefined), the TGI is greater than 100 µM in the test with HL-60(TB) leukemia; 50.4 µM with HCT-116 colon; greater than 100 µM in the test with NCI-H226 lung; 88.9 µM with KM12 colon; greater than 100 µM in the test on TK-10 renal; greater than 100 µM with 786-0 renal. The total growth inhibition concentration (TGI) in the test on HOP-62 NSCLC and in the test on A498 renal was greater than 100 µM each time.
As to `COc1ccc(C2Oc3cc(OC)c(O)c(C)c3[C@H]2C)cc1` (some centres undefined), the TGI with OVCAR-8 ovarian was greater than 100 µM; in the test with HL-60(TB) leukemia, 76.7 µM; with HCT-116 colon, greater than 100 µM; in the test on NCI-H226 lung it was greater than 100 µM; in the test on KM12 colon it was greater than 100 µM; in the test with TK-10 renal it was greater than 100 µM. Besides, the TGI in the test with 786-0 renal, in the test with HOP-62 NSCLC and in the test on A498 renal was greater than 100 µM each time.
As for `O=C(C[n+]1ccccc1)N/N=C(\Cc1nc2ccc([N+](=O)[O-])cc2[nH]c1=O)C(=O)Nc1cc(Cl)c(Cl)cc1Cl`, the concentration for total growth inhibition (TGI) in the test with OVCAR-8 ovarian, in the test with HL-60(TB) leukemia, in the test with HCT-116 colon, in the test with NCI-H226 lung, with KM12 colon and in the test with 786-0 renal was greater than 100 µM throughout. The total growth inhibition concentration (TGI) with A498 renal and in the test with HS 578T breast was greater than 100 µM throughout.
`C=C1C(=O)OC2/C=C(/C)C3CC(O)C(C)(CC(OC(=O)/C(C)=C/C)C12)O3` (centres undefined): the total growth inhibition concentration (TGI) in the test on OVCAR-8 ovarian was 3.99 µM; in the test with HL-60(TB) leukemia, 18.3 µM; in the test on HCT-116 colon, 3.08 µM; with NCI-H226 lung, 35.3 µM; in the test with KM12 colon, 11.3 µM; in the test with TK-10 renal, 20.1 µM. For the same compound, the values for the total growth inhibition concentration (TGI) with 786-0 renal, in the test with HOP-62 NSCLC and in the test on A498 renal were 11.5 µM, 46.7 µM and 23.2 µM, respectively.
In the case of `COP(=O)(Cc1ccccc1)Cc1ccccc1`, the TGI with OVCAR-8 ovarian, in the test on HL-60(TB) leukemia, in the test with HCT-116 colon, in the test with NCI-H226 lung, in the test on TK-10 renal and with 786-0 renal was greater than 100 µM throughout. Further, the TGI in the test on HOP-62 NSCLC and in the test with HS 578T breast was greater than 100 µM throughout.
Consider `O=C(O)CS`, for which the concentration for total growth inhibition (TGI) with HL-60(TB) leukemia, with HCT-116 colon, in the test on NCI-H226 lung, in the test on KM12 colon, in the test with TK-10 renal and in the test with 786-0 renal was greater than 100 µM in each case.
Turning to `CCOC(=O)c1c(C)cc(=O)n2c1[nH]c1ccccc12`, the TGI with OVCAR-8 ovarian, with HL-60(TB) leukemia, in the test with HCT-116 colon, with NCI-H226 lung, in the test on TK-10 renal and in the test on 786-0 renal was greater than 100 µM in each case. This compound had a total growth inhibition concentration (TGI) with A498 renal greater than 100 µM.
As to `CS(=O)(=O)c1c(N)c2nc(Cl)cn2c2nc3ccccc3nc12`, the TGI in the test with OVCAR-8 ovarian, with HCT-116 colon, with NCI-H226 lung, in the test on KM12 colon, in the test on 786-0 renal and in the test with HOP-62 NSCLC was greater than 100 µM each time.
For `Clc1ccccc1C1=NN(c2ccccc2)C2c3ccccc3OCC12` (centres undefined), the TGI in the test with OVCAR-8 ovarian, with HL-60(TB) leukemia, with HCT-116 colon, with KM12 colon, in the test with TK-10 renal and in the test with 786-0 renal was greater than 100 µM each time. The TGI in the test with HOP-62 NSCLC and in the test with A498 renal was greater than 100 µM throughout.
As for `Cc1ccc2c(c1)C(=O)N1CCC[C@H]1C=N2`, the concentration for total growth inhibition (TGI) was greater than 100 µM in the test on OVCAR-8 ovarian; greater than 100 µM in the test with HCT-116 colon; 39.7 µM with KM12 colon; 85.7 µM in the test with TK-10 renal; greater than 100 µM in the test with 786-0 renal; greater than 83.1 µM in the test with HOP-62 NSCLC. The figures for the TGI in the test with A498 renal and with HS 578T breast were greater than 100 µM and 31.5 µM, respectively.
As for `CCN(CC)CCCNc1ncc(C)c2[nH]c3ccncc3c12`, the TGI in the test on OVCAR-8 ovarian was 96.8 µM; in the test on HL-60(TB) leukemia it was greater than 31.6 µM; in the test with HCT-116 colon, 30.3 µM; in the test with NCI-H226 lung, 20.3 µM; with KM12 colon it was 42 µM; in the test with HOP-62 NSCLC, 79.5 µM. In the test with A498 renal, this compound yielded a concentration for total growth inhibition (TGI) of 40.4 µM.
Consider `CCN(CC)CCCC(C)Nc1ccnc2ccc3nn(C)nc3c12` (centres undefined), for which the TGI with OVCAR-8 ovarian, in the test with HL-60(TB) leukemia, with HCT-116 colon, in the test on NCI-H226 lung, in the test on KM12 colon and in the test on TK-10 renal was greater than 100 µM each time. The total growth inhibition concentration (TGI) in the test with 786-0 renal, in the test with HOP-62 NSCLC and with A498 renal was greater than 100 µM in each case.
On to `CN(CCO)c1nc(N)cc(=O)[nH]1`, for which the concentration for total growth inhibition (TGI) in the test with OVCAR-8 ovarian, in the test with HL-60(TB) leukemia, in the test on HCT-116 colon, in the test on NCI-H226 lung, in the test with KM12 colon and with TK-10 renal was greater than 100 µM in each case. The total growth inhibition concentration (TGI) with 786-0 renal and in the test with HOP-62 NSCLC was greater than 100 µM in each case.
On to `C/C(=N\Nc1nc2ccccc2n1C)c1cnccn1`, for which the total growth inhibition concentration (TGI) in the test on OVCAR-8 ovarian was greater than 100 µM; with HL-60(TB) leukemia it was 0.058 µM; in the test with NCI-H226 lung, greater than 100 µM; with KM12 colon it was greater than 33.2 µM; in the test with TK-10 renal, greater than 100 µM; in the test on 786-0 renal it was greater than 39.2 µM. Also, the total growth inhibition concentration (TGI) in the test on HOP-62 NSCLC is 37 µM; in the test with A498 renal it was greater than 63.3 µM.
As to `S=P1(N2CCCCC2)Oc2ccc3ccccc3c2-c2c(ccc3ccccc23)O1`, the concentration for total growth inhibition (TGI) in the test on OVCAR-8 ovarian, in the test with HL-60(TB) leukemia, with HCT-116 colon, with NCI-H226 lung, in the test with KM12 colon and in the test on HOP-62 NSCLC was greater than 100 µM each time. The concentration for total growth inhibition (TGI) in the test on A498 renal is greater than 100 µM.
For the compound `Nc1nc(Cl)cc(OCC2(CO)CC(OCc3ccccc3)C2)n1` (centres undefined), the GI50 was 66.6 µM with OVCAR-8 ovarian; 40 µM in the test on HL-60(TB) leukemia; 64 µM with HCT-116 colon; 74 µM with NCI-H226 lung; 55.5 µM in the test on KM12 colon; 95.7 µM in the test with HOP-62 NSCLC. Also, the figures for the GI50 in the test on A498 renal and in the test with HS 578T breast were 58.3 µM and 34 µM, respectively.
